{"source": "PubChem BioAssay AID743137", "about": "(The Scripps Research Institute Molecular Screening Center, 2013)", "experiment_in_all_cases": "proteome-wide serine hydrolase selectivity of LYPLA inhibitors, late-stage follow-up, selectivity assay for LYPLA1/LYPLA2 inhibitor project, cell-based, HeLa, LC-MS, SILAC, powders (AID 743137)", "key": {"[1]": {"biological_target": "Lysosomal Pro-X carboxypeptidase (Homo sapiens) (UniProt P42785)", "settings": "HeLa SILAC ABPP, FP-biotin LC-MS, serine hydrolase panel; PRCP; at 1 µM; stronger effect = lower value"}, "[2]": {"test_system": "ESD", "settings": "HeLa SILAC ABPP, FP-biotin LC-MS, serine hydrolase panel, at 1 µM, stronger effect = lower value"}, "[3]": {"test_system": "LYPLAL1", "settings": "HeLa SILAC ABPP, FP-biotin LC-MS, serine hydrolase panel, at 1 µM, stronger effect = lower value"}, "[4]": {"biological_target": "Platelet-activating factor acetylhydrolase IB subunit alpha2 (Homo sapiens) (UniProt P68402)", "sequence (P68402 whole entry, looked up)": "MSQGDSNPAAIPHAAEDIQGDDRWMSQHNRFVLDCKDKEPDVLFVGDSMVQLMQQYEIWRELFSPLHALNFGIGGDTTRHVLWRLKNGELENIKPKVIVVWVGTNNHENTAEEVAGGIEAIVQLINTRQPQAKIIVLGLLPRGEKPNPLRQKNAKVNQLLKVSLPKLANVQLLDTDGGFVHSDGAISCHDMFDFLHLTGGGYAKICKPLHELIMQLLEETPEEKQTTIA", "settings": "HeLa SILAC ABPP, FP-biotin LC-MS, serine hydrolase panel; PAFAH1B2; at 1 µM; stronger effect = lower value"}, "[5]": {"test_system": "SCPEP1", "settings": "HeLa SILAC ABPP, FP-biotin LC-MS, serine hydrolase panel, at 1 µM, stronger effect = lower value"}, "[6]": {"test_system": "NCEH1", "settings": "HeLa SILAC ABPP, FP-biotin LC-MS, serine hydrolase panel, at 1 µM, stronger effect = lower value"}, "[7]": {"test_system": "ABHD6", "settings": "HeLa SILAC ABPP, FP-biotin LC-MS, serine hydrolase panel, at 1 µM, stronger effect = lower value"}, "[8]": {"biological_target": "sn-1-specific diacylglycerol lipase ABHD11 (Homo sapiens) (UniProt Q8NFV4)", "settings": "HeLa SILAC ABPP, FP-biotin LC-MS, serine hydrolase panel, at 1 µM, stronger effect = lower value"}, "[9]": {"biological_target": "Platelet-activating factor acetylhydrolase 2, cytoplasmic (Homo sapiens) (UniProt Q99487)", "settings": "HeLa SILAC ABPP, FP-biotin LC-MS, serine hydrolase panel; PAFAH2; at 1 µM; stronger effect = lower value"}, "[10]": {"test_system": "PNPLA6", "settings": "HeLa SILAC ABPP, FP-biotin LC-MS, serine hydrolase panel, at 1 µM, stronger effect = lower value"}, "[11]": {"biological_target": "Acyl-protein thioesterase 2 (Homo sapiens) (UniProt O95372)", "sequence (O95372 whole entry, looked up)": "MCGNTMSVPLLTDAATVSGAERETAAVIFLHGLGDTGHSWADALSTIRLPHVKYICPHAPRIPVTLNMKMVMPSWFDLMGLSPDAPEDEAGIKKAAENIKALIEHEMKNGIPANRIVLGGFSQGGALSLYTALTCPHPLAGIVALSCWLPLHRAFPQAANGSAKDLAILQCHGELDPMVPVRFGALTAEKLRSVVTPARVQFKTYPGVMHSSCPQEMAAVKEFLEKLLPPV", "settings": "HeLa SILAC ABPP, FP-biotin LC-MS, serine hydrolase panel; LYPLA2; at 1 µM; stronger effect = lower value"}, "[12]": {"test_system": "ABHD10", "settings": "HeLa SILAC ABPP, FP-biotin LC-MS, serine hydrolase panel, at 1 µM, stronger effect = lower value"}, "[13]": {"biological_target": "Acylamino-acid-releasing enzyme (Homo sapiens) (UniProt P13798)", "sequence (P13798 whole entry, looked up)": "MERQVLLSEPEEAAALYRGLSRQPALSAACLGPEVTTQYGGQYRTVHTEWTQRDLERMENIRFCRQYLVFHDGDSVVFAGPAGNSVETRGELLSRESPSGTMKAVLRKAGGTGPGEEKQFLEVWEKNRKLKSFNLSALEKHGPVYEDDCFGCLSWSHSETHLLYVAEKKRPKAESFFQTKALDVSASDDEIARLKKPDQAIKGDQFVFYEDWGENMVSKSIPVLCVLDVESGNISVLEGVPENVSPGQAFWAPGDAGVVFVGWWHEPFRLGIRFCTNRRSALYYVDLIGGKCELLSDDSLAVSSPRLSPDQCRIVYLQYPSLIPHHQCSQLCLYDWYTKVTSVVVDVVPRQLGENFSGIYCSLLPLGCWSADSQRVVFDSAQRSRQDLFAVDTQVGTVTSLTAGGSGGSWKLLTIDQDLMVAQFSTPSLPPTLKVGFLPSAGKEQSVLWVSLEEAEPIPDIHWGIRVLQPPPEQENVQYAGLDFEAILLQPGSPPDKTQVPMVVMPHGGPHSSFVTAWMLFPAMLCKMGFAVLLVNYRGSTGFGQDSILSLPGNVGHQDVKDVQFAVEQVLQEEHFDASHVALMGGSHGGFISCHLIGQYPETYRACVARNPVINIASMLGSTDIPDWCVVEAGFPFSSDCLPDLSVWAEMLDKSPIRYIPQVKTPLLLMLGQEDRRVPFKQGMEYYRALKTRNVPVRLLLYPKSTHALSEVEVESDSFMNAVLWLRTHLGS", "settings": "HeLa SILAC ABPP, FP-biotin LC-MS, serine hydrolase panel; APEH; at 1 µM; stronger effect = lower value"}, "[14]": {"biological_target": "PNPLA4 (UniProt P41247)", "settings": "HeLa SILAC ABPP, FP-biotin LC-MS, serine hydrolase panel, at 1 µM, stronger effect = lower value"}, "[15]": {"test_system": "ABHD12", "settings": "HeLa SILAC ABPP, FP-biotin LC-MS, serine hydrolase panel, at 1 µM, stronger effect = lower value"}, "[16]": {"biological_target": "Platelet-activating factor acetylhydrolase IB subunit alpha1 (Homo sapiens) (UniProt Q15102)", "sequence (Q15102 whole entry, looked up)": "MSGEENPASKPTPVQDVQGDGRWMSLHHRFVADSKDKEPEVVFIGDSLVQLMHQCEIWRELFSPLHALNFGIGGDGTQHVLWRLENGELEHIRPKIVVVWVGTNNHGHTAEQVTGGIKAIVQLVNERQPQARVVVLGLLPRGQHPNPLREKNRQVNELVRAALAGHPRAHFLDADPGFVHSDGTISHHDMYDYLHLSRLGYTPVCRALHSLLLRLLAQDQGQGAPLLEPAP", "settings": "HeLa SILAC ABPP, FP-biotin LC-MS, serine hydrolase panel; PAFAH1B3; at 1 µM; stronger effect = lower value"}, "[17]": {"biological_target": "Acyl-coenzyme A thioesterase 2, mitochondrial (Homo sapiens) (UniProt P49753)", "sequence (P49753 whole entry, looked up)": "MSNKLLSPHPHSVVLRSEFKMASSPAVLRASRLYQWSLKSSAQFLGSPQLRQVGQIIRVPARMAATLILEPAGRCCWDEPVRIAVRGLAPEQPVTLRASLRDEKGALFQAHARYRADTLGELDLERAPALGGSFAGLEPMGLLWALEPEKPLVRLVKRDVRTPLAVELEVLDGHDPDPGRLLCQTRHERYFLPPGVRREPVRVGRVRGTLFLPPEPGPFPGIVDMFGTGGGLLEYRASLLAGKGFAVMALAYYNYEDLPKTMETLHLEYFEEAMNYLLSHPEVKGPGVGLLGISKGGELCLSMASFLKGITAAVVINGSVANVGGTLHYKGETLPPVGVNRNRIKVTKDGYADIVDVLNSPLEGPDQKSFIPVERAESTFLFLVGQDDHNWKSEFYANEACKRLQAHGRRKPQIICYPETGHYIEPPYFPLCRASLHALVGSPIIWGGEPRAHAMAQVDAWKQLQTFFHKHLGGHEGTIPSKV", "settings": "HeLa SILAC ABPP, FP-biotin LC-MS, serine hydrolase panel; ACOT2; at 1 µM; stronger effect = lower value"}, "[18]": {"biological_target": "Lysosomal phospholipase A and acyltransferase (Homo sapiens) (UniProt Q8NCC3)", "settings": "HeLa SILAC ABPP, FP-biotin LC-MS, serine hydrolase panel; PLA2G15; at 1 µM; stronger effect = lower value"}, "[19]": {"biological_target": "Dipeptidyl peptidase 8 (Homo sapiens) (UniProt Q6V1X1)", "sequence (Q6V1X1 whole entry, looked up)": "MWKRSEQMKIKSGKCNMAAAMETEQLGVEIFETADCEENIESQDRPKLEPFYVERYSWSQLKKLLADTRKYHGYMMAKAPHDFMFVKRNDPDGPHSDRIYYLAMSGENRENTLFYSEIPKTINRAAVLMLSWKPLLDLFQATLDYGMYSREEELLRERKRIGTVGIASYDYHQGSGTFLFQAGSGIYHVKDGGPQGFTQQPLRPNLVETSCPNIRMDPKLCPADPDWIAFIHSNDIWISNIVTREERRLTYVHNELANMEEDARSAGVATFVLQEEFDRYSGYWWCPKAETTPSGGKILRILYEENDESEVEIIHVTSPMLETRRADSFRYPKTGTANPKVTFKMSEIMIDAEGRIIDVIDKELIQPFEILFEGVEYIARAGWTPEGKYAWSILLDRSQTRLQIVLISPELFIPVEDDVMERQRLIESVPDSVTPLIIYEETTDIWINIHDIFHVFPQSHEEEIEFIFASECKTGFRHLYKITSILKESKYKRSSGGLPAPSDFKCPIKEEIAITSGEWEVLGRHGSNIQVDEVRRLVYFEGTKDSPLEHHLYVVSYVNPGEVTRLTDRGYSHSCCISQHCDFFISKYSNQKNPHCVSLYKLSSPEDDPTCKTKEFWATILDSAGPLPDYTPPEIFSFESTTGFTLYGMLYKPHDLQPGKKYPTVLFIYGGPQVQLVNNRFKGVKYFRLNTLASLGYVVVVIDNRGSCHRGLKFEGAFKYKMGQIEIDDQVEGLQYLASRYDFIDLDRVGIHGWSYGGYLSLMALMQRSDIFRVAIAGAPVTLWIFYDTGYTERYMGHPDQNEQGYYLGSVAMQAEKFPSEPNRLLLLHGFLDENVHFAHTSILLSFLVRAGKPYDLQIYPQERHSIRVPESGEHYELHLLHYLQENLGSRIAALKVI", "settings": "HeLa SILAC ABPP, FP-biotin LC-MS, serine hydrolase panel; DPP8; at 1 µM; stronger effect = lower value"}, "[20]": {"test_system": "FAM108B1", "settings": "HeLa SILAC ABPP, FP-biotin LC-MS, serine hydrolase panel, at 1 µM, stronger effect = lower value"}, "[21]": {"biological_target": "Prolyl endopeptidase-like (Homo sapiens) (UniProt Q4J6C6)", "sequence (Q4J6C6 whole entry, looked up)": "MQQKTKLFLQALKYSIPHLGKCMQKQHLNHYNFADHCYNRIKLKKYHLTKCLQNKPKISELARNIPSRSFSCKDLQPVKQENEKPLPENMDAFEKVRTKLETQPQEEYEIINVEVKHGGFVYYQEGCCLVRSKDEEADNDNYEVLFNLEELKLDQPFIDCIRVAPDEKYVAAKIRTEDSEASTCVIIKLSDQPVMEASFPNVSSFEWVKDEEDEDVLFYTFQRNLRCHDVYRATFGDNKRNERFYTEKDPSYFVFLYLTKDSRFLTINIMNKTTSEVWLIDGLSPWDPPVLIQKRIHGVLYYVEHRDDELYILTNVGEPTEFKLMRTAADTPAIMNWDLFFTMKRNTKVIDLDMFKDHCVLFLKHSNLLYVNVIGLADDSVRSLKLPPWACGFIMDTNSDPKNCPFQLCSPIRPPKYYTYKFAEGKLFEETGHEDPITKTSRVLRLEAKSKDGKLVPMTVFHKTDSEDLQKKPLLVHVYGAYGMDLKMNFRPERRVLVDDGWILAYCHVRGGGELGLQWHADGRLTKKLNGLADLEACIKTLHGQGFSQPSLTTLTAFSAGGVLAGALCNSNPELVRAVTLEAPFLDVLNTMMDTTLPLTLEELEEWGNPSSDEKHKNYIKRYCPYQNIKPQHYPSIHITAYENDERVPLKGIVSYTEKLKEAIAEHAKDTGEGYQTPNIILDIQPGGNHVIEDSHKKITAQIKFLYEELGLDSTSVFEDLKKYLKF", "settings": "HeLa SILAC ABPP, FP-biotin LC-MS, serine hydrolase panel; PREPL; at 1 µM; stronger effect = lower value"}, "[22]": {"biological_target": "FAM111B (UniProt Q6SJ93)", "sequence (Q6SJ93 whole entry, looked up)": "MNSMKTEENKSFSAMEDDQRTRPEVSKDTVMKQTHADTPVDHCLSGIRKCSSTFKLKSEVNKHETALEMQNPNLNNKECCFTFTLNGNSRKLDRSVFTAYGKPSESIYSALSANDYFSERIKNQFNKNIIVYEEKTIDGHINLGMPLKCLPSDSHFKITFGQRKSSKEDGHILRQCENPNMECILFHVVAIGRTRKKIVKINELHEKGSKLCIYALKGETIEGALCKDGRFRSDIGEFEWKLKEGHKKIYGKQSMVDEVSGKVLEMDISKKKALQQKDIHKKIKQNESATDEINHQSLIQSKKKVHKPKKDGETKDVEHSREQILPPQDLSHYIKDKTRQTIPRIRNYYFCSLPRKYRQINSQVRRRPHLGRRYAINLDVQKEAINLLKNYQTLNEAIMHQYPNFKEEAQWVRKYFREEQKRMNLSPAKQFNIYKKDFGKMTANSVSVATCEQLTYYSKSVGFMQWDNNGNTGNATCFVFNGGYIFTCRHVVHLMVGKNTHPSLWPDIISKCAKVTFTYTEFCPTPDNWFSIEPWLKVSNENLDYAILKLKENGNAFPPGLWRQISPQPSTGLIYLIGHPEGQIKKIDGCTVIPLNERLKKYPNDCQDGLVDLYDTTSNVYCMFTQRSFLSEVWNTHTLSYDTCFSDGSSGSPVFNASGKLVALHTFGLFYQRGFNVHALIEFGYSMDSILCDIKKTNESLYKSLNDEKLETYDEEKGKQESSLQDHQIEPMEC", "settings": "HeLa SILAC ABPP, FP-biotin LC-MS, serine hydrolase panel, at 1 µM, stronger effect = lower value"}, "[23]": {"biological_target": "Acyl-protein thioesterase 1 (Homo sapiens) (UniProt O75608)", "sequence (O75608 whole entry, looked up)": "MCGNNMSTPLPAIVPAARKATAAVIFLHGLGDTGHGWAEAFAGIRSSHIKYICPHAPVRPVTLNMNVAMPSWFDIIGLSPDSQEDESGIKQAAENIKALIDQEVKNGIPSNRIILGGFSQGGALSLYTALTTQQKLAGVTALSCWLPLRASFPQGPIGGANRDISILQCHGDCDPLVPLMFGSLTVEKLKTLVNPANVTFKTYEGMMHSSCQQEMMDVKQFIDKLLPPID", "settings": "HeLa SILAC ABPP, FP-biotin LC-MS, serine hydrolase panel; LYPLA1; at 1 µM; stronger effect = lower value"}, "[24]": {"test_system": "MAGL (MGLL)", "settings": "HeLa SILAC ABPP, FP-biotin LC-MS, serine hydrolase panel, at 1 µM, stronger effect = lower value"}, "[25]": {"biological_target": "Lysosomal protective protein (Homo sapiens) (UniProt P10619)", "sequence (P10619 whole entry, looked up)": "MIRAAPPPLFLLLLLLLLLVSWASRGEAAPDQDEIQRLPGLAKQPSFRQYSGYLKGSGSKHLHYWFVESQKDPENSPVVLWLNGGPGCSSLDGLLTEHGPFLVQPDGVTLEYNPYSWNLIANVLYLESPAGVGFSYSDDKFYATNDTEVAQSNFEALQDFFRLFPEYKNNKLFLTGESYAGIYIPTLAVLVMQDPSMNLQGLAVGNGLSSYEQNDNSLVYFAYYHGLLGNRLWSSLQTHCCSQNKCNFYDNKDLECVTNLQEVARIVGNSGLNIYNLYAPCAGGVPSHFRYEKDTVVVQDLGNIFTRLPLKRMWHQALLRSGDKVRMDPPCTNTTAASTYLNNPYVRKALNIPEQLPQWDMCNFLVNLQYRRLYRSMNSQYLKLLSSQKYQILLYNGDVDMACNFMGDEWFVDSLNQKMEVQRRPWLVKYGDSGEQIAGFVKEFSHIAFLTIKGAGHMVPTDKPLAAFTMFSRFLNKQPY", "settings": "HeLa SILAC ABPP, FP-biotin LC-MS, serine hydrolase panel; CTSA; at 1 µM; stronger effect = lower value"}, "[26]": {"biological_target": "Prolyl endopeptidase FAP (Homo sapiens) (UniProt Q12884)", "settings": "HeLa SILAC ABPP, FP-biotin LC-MS, serine hydrolase panel, at 1 µM, stronger effect = lower value"}}, "note": "Active and inactive are the calls of the source.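 How the source made its calls: active means LYPLA1 and LYPLA2 each at a ratio of 0.5 or below, with under two anti-target hydrolases also at that level; inactive means the rest.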"}
{"smiles": "O=C(ON1C(=O)C2CN(C(=O)N3CCOCC3)CCN2C1=O)N1CCC(CCc2ccc(Cl)cc2)CC1", "note": "(stereo unspecified)", "values": [{"measurement": "inhibitor/DMSO ratio", "setting": "[1]", "value": "0.93 (inactive)"}, {"measurement": "inhibitor/DMSO ratio", "setting": "[2]", "value": "1.2 (inactive)"}, {"measurement": "inhibitor/DMSO ratio", "setting": "[3]", "value": "1.7 (inactive)"}, {"measurement": "inhibitor/DMSO ratio", "setting": "[4]", "value": "1.2 (inactive)"}, {"measurement": "inhibitor/DMSO ratio", "setting": "[5]", "value": "0.93 (inactive)"}, {"measurement": "inhibitor/DMSO ratio", "setting": "[6]", "value": "0.98 (inactive)"}, {"measurement": "inhibitor/DMSO ratio", "setting": "[7]", "value": 0.05}, {"measurement": "inhibitor/DMSO ratio", "setting": "[8]", "value": "1.3 (inactive)"}, {"measurement": "inhibitor/DMSO ratio", "setting": "[9]", "value": "1.4 (inactive)"}, {"measurement": "inhibitor/DMSO ratio", "setting": "[10]", "value": "1.2 (inactive)"}, {"measurement": "inhibitor/DMSO ratio", "setting": "[11]", "value": 0.084}, {"measurement": "inhibitor/DMSO ratio", "setting": "[12]", "value": "1.3 (inactive)"}, {"measurement": "inhibitor/DMSO ratio", "setting": "[13]", "value": "1.3 (inactive)"}, {"measurement": "inhibitor/DMSO ratio", "setting": "[14]", "value": "1.2 (inactive)"}, {"measurement": "inhibitor/DMSO ratio", "setting": "[15]", "value": "0.83 (inactive)"}, {"measurement": "inhibitor/DMSO ratio", "setting": "[16]", "value": "1.4 (inactive)"}, {"measurement": "inhibitor/DMSO ratio", "setting": "[17]", "value": "1.4 (inactive)"}, {"measurement": "inhibitor/DMSO ratio", "setting": "[18]", "value": "1.4 (inactive)"}, {"measurement": "inhibitor/DMSO ratio", "setting": "[19]", "value": "1.4 (inactive)"}, {"measurement": "inhibitor/DMSO ratio", "setting": "[20]", "value": "0.98 (inactive)"}, {"measurement": "inhibitor/DMSO ratio", "setting": "[21]", "value": "1.5 (inactive)"}, {"measurement": "inhibitor/DMSO ratio", "setting": "[22]", "value": "1.4 (inactive)"}, {"measurement": "inhibitor/DMSO ratio", "setting": "[23]", "value": 0.05}, {"measurement": "inhibitor/DMSO ratio", "setting": "[24]", "value": "0.57 (inactive)"}, {"measurement": "inhibitor/DMSO ratio", "setting": "[25]", "value": "1.1 (inactive)"}, {"measurement": "inhibitor/DMSO ratio", "setting": "[26]", "value": "1 (inactive)"}]}
